{
  "source": "patent US20040058975A1",
  "about": "“Method for fertility control” (Schering AG, priority 2002, published 2004)",
  "origin": "cited, not measured here",
  "key": {"ovulation [1]": {"tested_on": "ovulation", "details": "COX-2 deficient mice"}, "ovulation [2]": {"tested_on": "ovulation", "details": "several mammalian species including rats, rabbits, sheep"}, "COX-2": {"target": "COX-2 (Homo sapiens, UniProt P35354)", "sequence (P35354 18-604)": "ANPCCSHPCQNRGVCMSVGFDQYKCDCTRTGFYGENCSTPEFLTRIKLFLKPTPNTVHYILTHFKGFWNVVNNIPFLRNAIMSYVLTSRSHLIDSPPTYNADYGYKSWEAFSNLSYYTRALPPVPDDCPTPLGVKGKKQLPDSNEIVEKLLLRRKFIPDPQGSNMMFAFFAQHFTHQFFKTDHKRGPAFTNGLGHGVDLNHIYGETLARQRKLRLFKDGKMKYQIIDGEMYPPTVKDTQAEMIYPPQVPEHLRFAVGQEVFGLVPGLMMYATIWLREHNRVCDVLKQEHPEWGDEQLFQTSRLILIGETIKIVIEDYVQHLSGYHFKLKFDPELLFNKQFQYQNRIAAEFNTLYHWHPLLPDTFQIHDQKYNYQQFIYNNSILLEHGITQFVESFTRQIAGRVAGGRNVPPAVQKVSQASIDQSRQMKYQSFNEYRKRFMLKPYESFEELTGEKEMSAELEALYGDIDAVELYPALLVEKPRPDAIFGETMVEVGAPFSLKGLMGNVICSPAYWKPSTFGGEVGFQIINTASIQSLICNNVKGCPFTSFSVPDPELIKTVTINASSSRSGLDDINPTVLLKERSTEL", "details": "humans"}, "ovulation [3]": {"tested_on": "ovulation", "details": "monkeys"}, "ovulation [4]": {"tested_on": "ovulation", "details": "women"}},
  "note": "Like-named read-outs stand apart in the source and are kept apart here.",
  "data": [
    {"molecule": "CCCCC[C@H](O)/C=C/[C@H]1[C@H](O)CC(=O)[C@@H]1C/C=C\\CCCC(=O)O", "note": "[prostaglandin E2]", "values": [
      {"measurement": "anovulation", "setting": "ovulation [1]", "value": "restored"}
    ]},
    {"molecule": "CC(=O)Oc1ccccc1C(=O)O", "note": "[Aspirin]", "values": [
      {"measurement": "ovulation", "setting": "ovulation [2]", "value": "may prevent ovulation"}
    ]},
    {"molecule": "Interleukin-1β: Interleukin-1β", "values": [
      {"measurement": "anovulation", "setting": "ovulation [1]", "value": "restored"}
    ]},
    {"molecule": "CS(=O)(=O)c1ccc(C2=C(c3ccccc3)C(=O)OC2)cc1", "note": "[Rofecoxib, 4-(4-mesylphenyl)-3-phenylfuran-2(5H)-one]", "values": [
      {"measurement": "follicular rupture", "setting": "COX-2", "value": "delayed follicular rupture"},
      {"measurement": "peripheral hormonal cycles", "setting": "COX-2", "value": "without affecting peripheral hormonal cycles"}
    ]},
    {"molecule": "COc1ccc2cc([C@H](C)C(=O)O)ccc2c1", "note": "[Naproxen]", "values": [
      {"measurement": "ovulation", "setting": "ovulation [2]", "value": "may prevent ovulation"}
    ]},
    {"molecule": "COc1ccc2c(c1)c(CC(=O)O)c(C)n2C(=O)c1ccc(Cl)cc1", "note": "[Indomethacin]", "values": [
      {"measurement": "ovulation", "setting": "ovulation [2]", "value": "may prevent ovulation"},
      {"measurement": "ovulation", "setting": "ovulation [3]", "value": "block ovulation"},
      {"measurement": "ovulation", "setting": "ovulation [4]", "value": "block ovulation"}
    ]}
  ]
}
